ChEMBL document CHEMBL4831501, “Discovery of a potent and selective inhibitor of histone lysine demethylase KDM4D” (Eur J Med Chem, 2021)
Blank lines part the entries; values can stand above or below the compound they belong to. The source made the active and inactive calls. The calls are words filed in the database; no cut-off is given here.

Legend:
[1] = target: T1, Lysine-specific demethylase 4D (Homo sapiens, UniProt Q6B0I6); experiment: Inhibition of KDM4D (unknown origin)
T1 sequence (Q6B0I6 whole entry): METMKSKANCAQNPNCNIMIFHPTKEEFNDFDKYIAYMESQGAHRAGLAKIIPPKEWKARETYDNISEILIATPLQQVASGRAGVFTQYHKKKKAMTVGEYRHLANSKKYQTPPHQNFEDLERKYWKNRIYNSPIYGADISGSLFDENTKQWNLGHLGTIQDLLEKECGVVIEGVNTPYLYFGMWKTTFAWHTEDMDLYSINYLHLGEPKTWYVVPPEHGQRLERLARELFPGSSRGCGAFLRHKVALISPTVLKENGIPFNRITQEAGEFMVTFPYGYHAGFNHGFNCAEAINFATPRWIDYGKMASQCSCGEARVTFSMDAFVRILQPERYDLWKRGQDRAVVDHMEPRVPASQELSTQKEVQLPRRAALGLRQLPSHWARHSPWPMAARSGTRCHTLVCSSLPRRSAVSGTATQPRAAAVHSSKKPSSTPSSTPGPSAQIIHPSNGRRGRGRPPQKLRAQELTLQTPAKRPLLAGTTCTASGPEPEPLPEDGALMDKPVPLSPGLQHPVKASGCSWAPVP

[2] = target: T2, Lysine-specific demethylase 4D (Homo sapiens) (UniProt Q6B0I6); experiment: Inhibition of human KDM4D expressed in Escherichia coli BL21 (DE3) at 1 uM using biotinylated H3-derived peptide and 2-OG as substrate preincubated for 15 mins followed by substrate addition and measured after 1 hr by AlphaLISA assay; details: time 75.0 min
T2 sequence (whole entry): T1 sequence (Q6B0I6 whole entry)

[3] = test system: HCT-116; experiment: Inhibition of cell migration in human HCT-116 cells at 10 to 20 uM by wound healing assay; assay type: functional, cell-based; details: dose 10-20 µM, time lower 12.0 hrs, time upper […], TDE = time-dependent effect
[4] = test system: A549; experiment: Antiproliferative activity against human A549 cells assessed as reduction in cell viability measured after 72 hrs by MTT assay; assay type: functional, cell-based
[5] = test system: SMMC-7721; experiment: Antiproliferative activity against human SMMC-7721 cells assessed as reduction in cell viability measured after 72 hrs by MTT assay; assay type: functional, cell-based
[6] = test system: HCT-116; experiment: Inhibition of colony formation in human HCT-116 cells incubated for 7 days by crystal violet staining based assay; assay type: functional, cell-based; details: dose 2.5-10 µM, time 7.0 day
[7] = target: T2, Lysine-specific demethylase 4D (Homo sapiens); experiment: Inhibition of KDM4D in human HCT-116 cells assessed as reduction in c-myc protein expression incubated for 48 hrs measured by Western blot analysis; assay type: cell-based; details: dose 2.5-20 µM
[8] = test system: HCT-116; experiment: Inhibition of cell migration in human HCT-116 cells at 10 uM incubated for 36 hrs by wound healing assay; assay type: functional
[9] = test system: SW480; experiment: Antiproliferative activity against human SW480 cells assessed as reduction in cell viability measured after 72 hrs by MTT assay; assay type: functional, cell-based; details: SW480, 72 h
[10] = test system: HeLa; experiment: Antiproliferative activity against human HeLa cells assessed as reduction in cell viability measured after 72 hrs by MTT assay; assay type: functional, cell-based
[11] = test system: SW-620; experiment: Antiproliferative activity against human SW-620 cells assessed as reduction in cell viability measured after 72 hrs by MTT assay; assay type: functional, cell-based; details: SW-620, 72 h
[12] = test system: SW-620; experiment: Inhibition of colony formation in human SW-620 cells incubated for 7 days by crystal violet staining based assay; assay type: functional, cell-based; details: dose 2.5-10 µM, time 7.0 day
[13] = test system: HepG2; experiment: Antiproliferative activity against human HepG2 cells assessed as reduction in cell viability measured after 72 hrs by MTT assay; assay type: functional, cell-based
[14] = test system: HCT-116; experiment: Inhibition of cell migration in human HCT-116 cells at 20 uM incubated for 36 hrs by wound healing assay; assay type: functional
[15] = target: T2, Lysine-specific demethylase 4D (Homo sapiens); experiment: Inhibition of KDM4D in human HCT-116 cells assessed as reduction in Gli1 protein expression incubated for 48 hrs measured by Western blot analysis; assay type: cell-based; details: dose 2.5-20 µM
[16] = test system: FaDu; experiment: Antiproliferative activity against human FaDu cells assessed as reduction in cell viability measured after 72 hrs by MTT assay; assay type: functional, cell-based
[17] = target: T2, Lysine-specific demethylase 4D (Homo sapiens); experiment: Inhibition of KDM4D in human HCT-116 cells assessed as reduction in beta-catenin protein expression incubated for 48 hrs measured by Western blot analysis; assay type: cell-based; details: dose 2.5-20 µM
[18] = test system: DU-145; experiment: Antiproliferative activity against human DU-145 cells assessed as reduction in cell viability measured after 72 hrs by MTT assay; assay type: functional, cell-based
[19] = test system: HCT-116; experiment: Antiproliferative activity against human HCT-116 cells assessed as reduction in cell viability measured after 72 hrs by MTT assay; assay type: functional, cell-based; details: HCT-116, 72 h
[20] = test system: Huh-7; experiment: Antiproliferative activity against human Huh-7 cells assessed as reduction in cell viability measured after 72 hrs by MTT assay; assay type: functional, cell-based
[21] = test system: HCT-116; experiment: Downregulation of KDM4D expression in human HCT-116 cells at 2.5 to 20 uM incubated for 48 hrs measured by Western blot analysis; assay type: functional, cell-based; details: dose 2.5-20 µM
[22] = Inhibition of KDM7B (unknown origin) by AlphaLISA assay; parameters: species or system Homo sapiens
[23] = test system: HCT-116; experiment: Inhibition of cell migration in human HCT-116 cells by crystal violet staining based transwell assay; assay type: functional; details: dose 2.5-10 µM
[24] = test system: SW480; experiment: Inhibition of colony formation in human SW480 cells incubated for 7 days by crystal violet staining based assay; assay type: functional, cell-based; details: dose 2.5-10 µM, time 7.0 day
[25] = test system: NCI-H1792; experiment: Antiproliferative activity against human NCI-H1792 cells assessed as reduction in cell viability measured after 72 hrs by MTT assay; assay type: functional, cell-based
[26] = target: T2, Lysine-specific demethylase 4D (Homo sapiens); experiment: Inhibition of GST-tagged KDM4D (unknown origin) expressed in Escherichia coli DH5alpha assessed as histone demethylation activity using H3K9me3 as substrate incubated for 4 hrs in presence of FLAG-histone H3 measured by Western blot analysis; details: dose 2.5-20 µM
[27] = test system: HCT-116; experiment: Inhibition of cell migration in human HCT-116 cells incubated for 12 to 36 hrs by wound healing assay; assay type: functional, cell-based; details: dose 10-20 µM, time lower 12.0 hrs, time upper […]

IC50 [1]: 0.29 µM
SMILES: Clc1ccc(N/N=C(\c2ccccc2)c2ccccn2)nc1

inhibition [2]: 99.5%
inhibition [7]: Dose-Dependent Effect
IC50 [9]: 10.7 µM
IC50 [11]: 19.2 µM
inhibition [15]: Dose-Dependent Effect
inhibition [17]: Dose-Dependent Effect
IC50 [19]: 10.7 µM
IC50 [22]: 82.7 µM
inhibition [26]: Dose-Dependent Effect
SMILES: CC(C)(C)OC(=O)N[C@@H]1CCN(C(c2ccc(-c3ccncc3)cc2)c2cc3c(cc2O)OCO3)C1 (some centres not stated)
inhibition [3]: Tde
Activity [4]: Active
Activity [5]: Active
inhibition [6]: Dose-Dependent Effect
inhibition at 10 µM [8]: 42.4%
Activity [10]: Active
inhibition [12]: Dose-Dependent Effect
Activity [13]: Active
inhibition at 20 µM [14]: 94.1%
Activity [16]: Active
Activity [18]: Active
Activity [20]: Active
inhibition [21]: Active
inhibition [23]: Dose-Dependent Effect
inhibition [24]: Dose-Dependent Effect
Activity [25]: Active
inhibition [27]: Dose-Dependent Effect
